Data on one substance can be found in patent publication US8974819B2, “Sustained-release chitosan capsules comprising chitosan and phytic acid” (priority 2007, dated 2015).

One assay has as its system diabetic rats. Kind of assay: Blood glucose lowering effect by dosage for 4 hours in diabetic rats. Format: in vivo, Male Sprague-Dawley (SD) rats. The following applies: diabetic SD rats, subcutaneous injection (PC, positive control).
The next assay has as its system diabetic mouse. Nature of the assay: Blood glucose level after administration to diabetic mice. The following applies: subcutaneous injection, 1 IU/kg. Format: in vivo, Balb-c strain male mice. The method, then:
Six-week old Balb-c strain male mice were used. Streptozotocin was dissolved in a 0.1 mM sodium chloride buffer at a concentration of 30 mg/mL, followed by subcutaneously injecting into the […] at a dosage of 65 mg/kg so as to induce diabetes. The male mice showing a blood glucose level of 470±40 mg/dL over two consecutive days were selected and the experiment was performed. The diabetic mice were starved for 12 hours before the experiment was started.
After the capsules showing the most preferable result were selected from Experimental Example 7 and Comparative Experimental Example 5, respectively, each capsule was orally administered to the diabetic mouse established in Preparative Example 4 and a blood glucose level was measured. […]
AAC (area above the blood glucose level-time curve) is to be numerically expressed the area above the blood glucose level-time curve by using a linear trapezoidal rule. […] F is relative bioavailability of a drug, which is calculated by multiplying the AAC value in case of the oral administration of insulin by the amount of insulin subcutaneously injected, dividing the resulting value by the AAC value in case of the subcutaneous injection of insulin, and dividing the resulting value by the amount of insulin orally administered. […]

In the case of Insulin, the blood glucose level entry in the assay with diabetic rats was “most rapidly decreased”; in the assay on diabetic mouse, “rapidly decreased”.
